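Grown in 96-well plates, cells were treated for 48 hours with each compound at five concentrations. Insufficient inhibition: endpoint recorded as highest concentration tested. At the GI50, growth is halved.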 Activity calls are given as the source filed them. Rule as the data show it: active = GI50 up to about 1.1 µM and inactive = higher.
What was measured:
Test in all cases: DTP human tumour cell line panel, 48 h
LOX IMVI = tested on: LOX IMVI
RPMI-8226 = tested on: RPMI-8226
HCT-116 = tested on: HCT-116
SR = tested on: SR
NCI-H226 = tested on: NCI-H226
OVCAR-3 = tested on: OVCAR-3
UO-31 = tested on: UO-31
KM12 = tested on: KM12
CCRF-CEM = tested on: CCRF-CEM
TK-10 = tested on: TK-10
UACC-62 = tested on: UACC-62
RXF 393 = tested on: RXF 393
UACC-257 = tested on: UACC-257
HT-29 = tested on: HT-29
NCI-H23 = tested on: NCI-H23
MCF7 = tested on: MCF7
DU-145 = tested on: DU-145
PC-3 = tested on: PC-3
MDA-MB-435 = tested on: MDA-MB-435
MDA-MB-231 = tested on: MDA-MB-231

Measured: GI50

CCOC(=O)CC(C)C1(C=O)CCCCC1=O (configuration not stated)
inactive: LOX IMVI 18.3 µM | RPMI-8226 20.6 µM | HCT-116 > 100 µM | SR 19.9 µM | NCI-H226 > 100 µM | OVCAR-3 > 100 µM | UO-31 > 100 µM | KM12 > 100 µM | CCRF-CEM 41.8 µM | TK-10 > 100 µM | UACC-62 > 100 µM | RXF 393 > 100 µM | UACC-257 > 100 µM | HT-29 > 10 µM

COc1ccc(CN2C(=O)[C@@H]3Cc4c(OC)c(C)c(OC)c(OC)c4[C@H](/C2=C\c2cc(OC)c(OC)c(C)c2OC)N3C(=O)OC(C)C)cc1
inactive: LOX IMVI 43 µM | RPMI-8226 8.34 µM | HCT-116 9.66 µM | NCI-H23 66.4 µM | SR 6.53 µM | NCI-H226 5.57 µM | OVCAR-3 99.1 µM | UO-31 36.5 µM | KM12 > 100 µM | CCRF-CEM 35.4 µM | TK-10 78 µM | UACC-62 48.6 µM | RXF 393 80.4 µM | UACC-257 8.28 µM | HT-29 92.5 µM

COc1cc(COC(=O)N(C)[C@@H](Cc2ccccc2)C(=O)O)c([N+](=O)[O-])cc1OC
inactive: MCF7 > 100 µM | DU-145 > 100 µM | RPMI-8226 > 100 µM | HCT-116 > 100 µM | NCI-H23 > 100 µM | PC-3 > 100 µM | MDA-MB-435 > 100 µM | NCI-H226 > 100 µM | OVCAR-3 > 100 µM | UO-31 > 100 µM | KM12 > 100 µM | CCRF-CEM > 100 µM | UACC-62 > 100 µM | UACC-257 > 100 µM | HT-29 > 100 µM

COc1ccc2c(c1)CCC1C3(CCCC21C)OCCO3 (configuration not stated)
inactive: LOX IMVI 15.9 µM | RPMI-8226 18.8 µM | HCT-116 16.8 µM | NCI-H23 15.6 µM | SR 20.4 µM | NCI-H226 17.4 µM | OVCAR-3 16.1 µM | UO-31 16.9 µM | KM12 20.3 µM | CCRF-CEM 16.9 µM | TK-10 36.8 µM | UACC-62 15.4 µM | RXF 393 13.7 µM | UACC-257 20.8 µM | HT-29 17.5 µM

COC(=O)C1C(=O)NC2(C)CC1c1ccccc1O2 (configuration not stated)
inactive: LOX IMVI > 100 µM | RPMI-8226 > 100 µM | HCT-116 > 100 µM | NCI-H23 > 100 µM | SR > 100 µM | NCI-H226 > 100 µM | OVCAR-3 > 10 µM | UO-31 > 100 µM | KM12 > 100 µM | CCRF-CEM > 100 µM | TK-10 > 100 µM | UACC-62 > 100 µM | RXF 393 > 100 µM | UACC-257 > 100 µM | HT-29 > 100 µM

Cc1ccc(S(=O)(=O)Nn2c(-c3ccccc3)c(C#N)c(-c3ccc(Cl)cc3)c(C#N)c2=O)cc1
inactive: MDA-MB-231 20 µM | LOX IMVI 21.4 µM | MCF7 19.4 µM | RPMI-8226 14 µM | HCT-116 18.9 µM | PC-3 26.2 µM | MDA-MB-435 33.3 µM | CCRF-CEM 20.4 µM | TK-10 38 µM | UACC-62 16.1 µM | RXF 393 25.2 µM | UACC-257 32.8 µM

Cc1cccc2[s+]snc12
inactive: LOX IMVI 49.5 µM | RPMI-8226 > 42.4 µM | HCT-116 > 59.4 µM | NCI-H23 > 96.6 µM | SR 31.3 µM | NCI-H226 > 100 µM | OVCAR-3 30.1 µM | UO-31 > 100 µM | KM12 > 100 µM | CCRF-CEM 23.9 µM | TK-10 > 100 µM | UACC-62 > 100 µM | RXF 393 47.3 µM | UACC-257 > 76.9 µM | HT-29 > 100 µM

C[Si](C)(C)c1ccc(-c2sc(-c3ccc([Si](C)(C)C)s3)c3c2C[Si]2(C3)Cc3c(-c4ccc([Si](C)(C)C)s4)sc(-c4ccc([Si](C)(C)C)s4)c3C2)s1
inactive: LOX IMVI > 100 µM | RPMI-8226 > 100 µM | HCT-116 > 100 µM | NCI-H23 > 100 µM | SR > 100 µM | NCI-H226 > 100 µM | OVCAR-3 > 100 µM | UO-31 > 100 µM | KM12 > 100 µM | CCRF-CEM > 100 µM | TK-10 > 100 µM | UACC-62 > 100 µM | RXF 393 > 100 µM | UACC-257 > 100 µM | HT-29 > 100 µM

COC(=O)c1c[nH]c(=O)[nH]c1=O [ISOOROTIC ACID METHYL ESTER]
inactive: LOX IMVI > 100 µM | MCF7 > 100 µM | DU-145 > 100 µM | RPMI-8226 > 100 µM | HCT-116 > 100 µM | NCI-H23 > 100 µM | PC-3 > 100 µM | SR > 100 µM | MDA-MB-435 > 100 µM | OVCAR-3 > 100 µM | UO-31 > 100 µM | KM12 > 100 µM | CCRF-CEM > 100 µM | TK-10 > 100 µM | UACC-62 > 100 µM | UACC-257 > 100 µM

COc1cccc(/C=N/n2c(C)n[nH]c2=O)c1
inactive: MDA-MB-231 > 100 µM | MCF7 > 100 µM | RPMI-8226 > 100 µM | HCT-116 > 100 µM | NCI-H23 > 100 µM | PC-3 > 100 µM | MDA-MB-435 > 100 µM | NCI-H226 95.1 µM | OVCAR-3 25.9 µM | UO-31 > 100 µM | KM12 > 100 µM | CCRF-CEM > 100 µM | UACC-62 69.3 µM | RXF 393 18.8 µM | UACC-257 > 100 µM | HT-29 > 100 µM

Cc1[nH]c2ccccc2c1C(=O)CC1(O)C(=O)Nc2ccccc21 (configuration not stated)
inactive: LOX IMVI > 100 µM | RPMI-8226 > 100 µM | HCT-116 > 100 µM | NCI-H23 > 100 µM | SR > 100 µM | NCI-H226 > 100 µM | UO-31 > 100 µM | KM12 > 100 µM | CCRF-CEM > 100 µM | TK-10 > 100 µM | UACC-62 > 100 µM | RXF 393 > 100 µM | UACC-257 > 100 µM | HT-29 > 100 µM

O=C(/C=C/c1ccccc1Cl)c1ccc(Cl)c(Cl)c1
inactive: LOX IMVI 14.6 µM | RPMI-8226 37.7 µM | HCT-116 11.5 µM | NCI-H23 20 µM | SR 21.7 µM | NCI-H226 > 100 µM | OVCAR-3 15.4 µM | UO-31 17.1 µM | KM12 15.8 µM | CCRF-CEM 26.4 µM | TK-10 18.5 µM | UACC-62 19.1 µM | RXF 393 13.1 µM | UACC-257 19.7 µM | HT-29 19.8 µM

O=C(CCc1nnc2s/c(=C\c3ccc(Cl)c(Cl)c3)c(=O)n12)Nc1ccc(Cl)c(Cl)c1
inactive: LOX IMVI 19.2 µM | RPMI-8226 20.4 µM | HCT-116 > 100 µM | NCI-H23 > 100 µM | SR 24.8 µM | NCI-H226 > 100 µM | OVCAR-3 29.9 µM | UO-31 > 100 µM | KM12 43.4 µM | CCRF-CEM 22.5 µM | TK-10 > 100 µM | UACC-62 > 100 µM | RXF 393 28.8 µM | UACC-257 > 100 µM | HT-29 > 100 µM
